This note sets out measurements from ChEMBL document CHEMBL4673352, “Discovery of AZD4573, a Potent and Selective Inhibitor of CDK9 That Enables Short Duration of Target Engagement for the Treatment of Hematological Malignancies” (J Med Chem, 2020).

Data set [1] in a line: Volume of distribution at steady state in Beagle dog at 5.2 umol/kg, iv administered as 0.25 hrs formulated as solution in 5% DMSO. The class given is ADME, organism-based, Canis lupus familiaris. The note with it: in vivo, dose 5.2 µmol/kg, read-out: Vdss.
Data set [2] in a line: Volume of distribution at steady state in mouse at […], iv formulated as solution. The note with it: in vivo, read-out: Vdss. The class given is ADME, organism-based.
The nature of data set [3]: Solubility of compound in pH 7.4 PBS buffer using crystalline form of sample. The class given is physicochemical.
Data set [4] can be described thus: Clearance in mouse plasma at […], iv formulated as solution. Conditions: dose 4.8 µmol/kg. The class given is ADME, organism-based.
The target in data set [5] is Cyclin-dependent kinase 1/cyclin B1 (Homo sapiens) (UniProt P06493+P14635). Put plainly: Inhibition of human recombinant full-length CDK1/CyclinB expressed in Sf21 insect cells using Histone H1 as substrate at 1 uM incubated for 40 mins in presence of [gamma32P]-ATP by scintillation counting method relative to control.
Cyclin-dependent kinase 1/cyclin B1 (Homo sapiens), sequence (P06493 whole entry, looked up): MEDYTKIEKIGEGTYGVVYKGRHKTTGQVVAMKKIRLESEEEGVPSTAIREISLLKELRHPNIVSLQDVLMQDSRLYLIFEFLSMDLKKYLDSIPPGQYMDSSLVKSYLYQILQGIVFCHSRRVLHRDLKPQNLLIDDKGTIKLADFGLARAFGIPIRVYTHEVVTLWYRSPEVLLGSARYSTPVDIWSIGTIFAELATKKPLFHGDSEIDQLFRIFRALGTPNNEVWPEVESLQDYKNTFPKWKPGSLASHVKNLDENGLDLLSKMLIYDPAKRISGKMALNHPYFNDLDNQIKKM
Cyclin-dependent kinase 1/cyclin B1 (Homo sapiens), sequence (P14635 whole entry, looked up): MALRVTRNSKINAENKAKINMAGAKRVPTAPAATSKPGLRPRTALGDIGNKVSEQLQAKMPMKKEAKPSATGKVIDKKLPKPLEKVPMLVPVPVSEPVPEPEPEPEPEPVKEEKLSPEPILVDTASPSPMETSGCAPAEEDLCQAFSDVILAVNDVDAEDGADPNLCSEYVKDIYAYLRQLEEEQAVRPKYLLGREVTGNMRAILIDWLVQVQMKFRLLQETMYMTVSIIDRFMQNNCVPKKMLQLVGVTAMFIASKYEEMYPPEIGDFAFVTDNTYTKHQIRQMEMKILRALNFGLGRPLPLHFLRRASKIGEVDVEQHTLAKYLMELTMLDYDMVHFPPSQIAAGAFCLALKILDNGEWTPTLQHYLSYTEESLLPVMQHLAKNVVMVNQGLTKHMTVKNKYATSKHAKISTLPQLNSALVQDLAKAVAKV
The nature of data set [6]: Clearance in Beagle dog plasma at 5.2 umol/kg, iv administered over 0.25 hrs formulated as solution in 5% DMSO. Conditions: dose 5.2 µmol/kg. The class given is ADME, organism-based, Canis lupus familiaris.
Data set [7] is described as follows: Drug metabolism in human liver microsome assessed as 4-(4-(2-((1S,3R)-3-acetamidocyclohexanecarboxamido)-5-chloropyridin-4-yl)-1H-pyrazol-5-yl)butanoic acid formation at 10 uM measured after 1 hr in presence of NADPH by LC-UV-MS analysis. Conditions: microsomes. The class given is ADME. Background: Microsomes from liver hold many membrane-bound enzymes, among them those of drug oxidation.

A short description of data set [8]: Drug metabolism in human liver microsomes assessed as (1S,3R)-3-acetamido-N-(5-fluoro-4-(5-(3-hydroxy-2,2-dimethylpropyl)-1H-pyrazol-4-yl)pyridin-2-yl)cyclohexanecarboxamide formation at 10 uM measured after 1 hr in presence of NADPH by LC-UV-MS analysis. The class given is ADME, Microsome.
Data set [9] can be described thus: Clearance in Beagle dog plasma at […], iv administered as 0.25 hrs infusion. The note with it: dose 0.24 µmol/kg. The class given is ADME, organism-based, Canis lupus familiaris.
Data set [10] can be described thus: Thermodynamic solubility of compound in pH 7.4 PBS buffer using crystalline form of sample. The class given is physicochemical. Conditions: read-out: Therm_solubility.
Data set [11] is filed under the species Homo sapiens. The experiment in a line: Selectivity ratio of IC50 for CDK5 (unknown origin) in presence of 5 mM ATP to IC50 for Inhibition of recombinant full length human N-terminal GST-fused CDK9 (1 to 372 residues)/His-tagged CyclinT1 (1 to 726 residues) expressed in baculovirus infected insect cells.
Data set [12] is filed under the species Homo sapiens. The experiment in a line: Selectivity ratio of IC50 for recombinant full length human His-tagged CDK1/CyclinB expressed in baculovirus infected insect cells to IC50 for Inhibition of recombinant full length human N-terminal GST-fused CDK9 (1 to 372 residues)/His-tagged CyclinT1 (1 to 726 residues) expressed in baculovirus infected insect cells.

For data set [13], the species on record is Homo sapiens. The experiment in a line: Selectivity ratio of IC50 for recombinant full length human CDK7/cyclinH1/MAT1 expressed in insect cells to IC50 for Inhibition of recombinant full length human N-terminal GST-fused CDK9 (1 to 372 residues)/His-tagged CyclinT1 (1 to 726 residues) expressed in baculovirus infected insect cells.
A short description of data set [14]: Half-life in Beagle dog at […], iv administered over 0.25 hrs formulated as solution in DMSO/Captisol. The class given is ADME, organism-based, Canis lupus familiaris. Conditions: in vivo, dose 0.24 µmol/kg.
Data set [15] in a line: Drug metabolism in human liver microsomes assessed as3-(4-(2-((1S,3R)-3-acetamidocyclohexanecarboxamido)-5-chloropyridin-4-yl)-1H-pyrazol-5-yl)-2,2-dimethylpropanoic acid formation at 10 uM measured after 1 hr in presence of NADPH by LC-UV-MS analysis. The class given is ADME, Microsome.
In data set [16] the target is T1, Mitogen-activated protein kinase 8 (Homo sapiens, UniProt P45983). The experiment in a line: Inhibition of JNK1 (unknown origin) in presence of 5 mM ATP.
T1 sequence (P45983 whole entry): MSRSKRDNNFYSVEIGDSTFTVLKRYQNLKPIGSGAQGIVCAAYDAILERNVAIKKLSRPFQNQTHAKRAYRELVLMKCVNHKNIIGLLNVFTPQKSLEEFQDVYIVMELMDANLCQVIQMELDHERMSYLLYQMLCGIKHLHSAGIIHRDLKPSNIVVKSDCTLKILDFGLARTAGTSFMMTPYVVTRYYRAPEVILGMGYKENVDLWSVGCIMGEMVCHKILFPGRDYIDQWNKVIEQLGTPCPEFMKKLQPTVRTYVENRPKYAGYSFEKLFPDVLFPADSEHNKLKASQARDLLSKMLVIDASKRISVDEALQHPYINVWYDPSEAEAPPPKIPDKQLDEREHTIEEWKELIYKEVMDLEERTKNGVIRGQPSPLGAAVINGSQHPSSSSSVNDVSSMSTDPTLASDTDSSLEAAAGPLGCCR
Data set [17] in a line: Drug metabolism in human hepatocytes assessed as (1S,3R)-3-acetamido-N-(5-chloro-4-(6-hydroxy-5,5-dimethyl-5,6-dihydro-4H-pyrrolo[1,2-b]pyrazol-3-yl)pyridin-2-yl)cyclohexanecarboxamide metabolite formation. The class given is ADME, cell-based, Hepatocyte.
The target in data set [18] is T2, Dual specificity tyrosine-phosphorylation-regulated kinase 2 (Homo sapiens) (UniProt Q92630).
T2 sequence (whole entry): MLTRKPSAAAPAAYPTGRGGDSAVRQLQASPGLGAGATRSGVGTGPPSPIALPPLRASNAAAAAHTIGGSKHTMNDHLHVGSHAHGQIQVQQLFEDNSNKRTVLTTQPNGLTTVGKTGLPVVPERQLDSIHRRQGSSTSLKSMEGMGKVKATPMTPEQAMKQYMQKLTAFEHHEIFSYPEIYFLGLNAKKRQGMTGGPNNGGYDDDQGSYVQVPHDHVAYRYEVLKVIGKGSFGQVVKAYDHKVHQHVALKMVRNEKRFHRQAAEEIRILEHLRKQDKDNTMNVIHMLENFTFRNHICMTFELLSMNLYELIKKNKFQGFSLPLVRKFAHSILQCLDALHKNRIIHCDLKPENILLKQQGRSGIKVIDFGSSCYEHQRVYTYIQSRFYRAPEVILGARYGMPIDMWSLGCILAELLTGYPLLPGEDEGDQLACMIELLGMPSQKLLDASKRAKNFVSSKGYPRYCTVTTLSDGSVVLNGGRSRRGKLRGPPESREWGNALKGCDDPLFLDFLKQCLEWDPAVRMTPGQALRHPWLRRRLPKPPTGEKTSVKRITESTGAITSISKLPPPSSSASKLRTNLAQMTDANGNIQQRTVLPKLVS
Put plainly: Inhibition of human recombinant full length N-terminal GST-tagged DYRK2 expressed in Escherichia coli at 0.1 uM incubated for 60 mins by TR-FRET based LanthaScreen Eu kinase binding assay relative to control. For orientation: In TR-FRET formats the signal depends on donor and acceptor labels being close together.

Data set [19] in a line: Drug metabolism in human liver microsomes assessed as (1S,3R)-3-acetamido-N-(5-chloro-4-(5-(3-hydroxy-2,2-dimethylpropyl)-1H-pyrazol-4-yl)pyridin-2-yl)cyclohexanecarboxamide formation at 10 uM measured after 1 hr in presence of NADPH by LC-UV-MS analysis. The class given is ADME, Microsome.
A short description of data set [20]: Half-life in mouse at 2.3 umol/kg, iv formulated as solution. The class given is ADME, organism-based. Conditions: in vivo, dose 2.3 µmol/kg.
Data set [21] concerns the target T1, Mitogen-activated protein kinase 8. Put plainly: Inhibition of human recombinant full-length JNK1 using ATF2 as substrate at1 uM incubated for 40 mins in presence of [gamma32P]-ATP by scintillation counting method relative to control. Conditions: dose 1.0 µM.
A short description of data set [22]: Clearance in Beagle dog plasma at 0.23 umol/kg, iv administered over 0.25 hrs formulated as solution in 10% DMSO/90% water. The class given is ADME, organism-based, Canis lupus familiaris. Conditions: dose 0.23 µmol/kg.
For another data set, the system named is NOMO-1. The experiment in a line: Antitumor activity against human NOMO1 cells xenografted in CB17 SCID mouse assessed as tumor regression at 15 mg/kg, ip BID administered at 2 hrs dosing interval with 2 days on and 5 days off dosing schedule measured 12 days post initial dose. The class given is functional. Conditions: time 12 day. A general note: In xenograft studies the graft and the host belong to different species.

Data set [23] in a line: Volume of distribution at steady state in Beagle dog at 0.23 umol/kg, iv administered over 0.25 hrs formulated as solution in 10% DMSO/90% water. The class given is ADME, organism-based, Canis lupus familiaris. The note with it: in vivo, dose 0.23 µmol/kg, read-out: Vdss.
Data set [24] deals with Insulin receptor (Homo sapiens) (UniProt P06213). Put plainly: Inhibition of human recombinant INSR using KKKSPGEYVNIEF as substrate at 1 uM incubated for 40 mins in presence of [gamma32P]-ATP by scintillation counting method relative to control.
Insulin receptor (Homo sapiens), sequence (P06213 28-758 limits assumed): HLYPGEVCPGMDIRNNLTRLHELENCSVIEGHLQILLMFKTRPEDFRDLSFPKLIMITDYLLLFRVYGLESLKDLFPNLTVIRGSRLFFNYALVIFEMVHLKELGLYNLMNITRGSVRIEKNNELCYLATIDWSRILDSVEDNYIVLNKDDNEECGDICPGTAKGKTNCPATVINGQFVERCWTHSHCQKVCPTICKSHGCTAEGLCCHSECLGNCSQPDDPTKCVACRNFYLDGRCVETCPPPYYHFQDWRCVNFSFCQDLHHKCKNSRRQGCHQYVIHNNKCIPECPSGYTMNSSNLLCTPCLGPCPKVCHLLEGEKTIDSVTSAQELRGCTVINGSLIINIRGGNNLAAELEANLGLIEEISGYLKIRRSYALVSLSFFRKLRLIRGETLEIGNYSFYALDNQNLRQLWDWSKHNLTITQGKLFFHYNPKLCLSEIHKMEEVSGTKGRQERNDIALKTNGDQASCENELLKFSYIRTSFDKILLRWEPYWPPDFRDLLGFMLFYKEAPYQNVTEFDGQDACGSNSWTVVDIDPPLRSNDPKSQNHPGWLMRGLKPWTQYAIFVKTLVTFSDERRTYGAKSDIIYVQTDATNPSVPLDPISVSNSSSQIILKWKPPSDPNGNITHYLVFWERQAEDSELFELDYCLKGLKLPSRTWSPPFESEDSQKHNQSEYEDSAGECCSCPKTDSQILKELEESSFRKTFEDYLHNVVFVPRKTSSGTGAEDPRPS
Insulin receptor (Homo sapiens), sequence (P06213 763-1382 limits assumed): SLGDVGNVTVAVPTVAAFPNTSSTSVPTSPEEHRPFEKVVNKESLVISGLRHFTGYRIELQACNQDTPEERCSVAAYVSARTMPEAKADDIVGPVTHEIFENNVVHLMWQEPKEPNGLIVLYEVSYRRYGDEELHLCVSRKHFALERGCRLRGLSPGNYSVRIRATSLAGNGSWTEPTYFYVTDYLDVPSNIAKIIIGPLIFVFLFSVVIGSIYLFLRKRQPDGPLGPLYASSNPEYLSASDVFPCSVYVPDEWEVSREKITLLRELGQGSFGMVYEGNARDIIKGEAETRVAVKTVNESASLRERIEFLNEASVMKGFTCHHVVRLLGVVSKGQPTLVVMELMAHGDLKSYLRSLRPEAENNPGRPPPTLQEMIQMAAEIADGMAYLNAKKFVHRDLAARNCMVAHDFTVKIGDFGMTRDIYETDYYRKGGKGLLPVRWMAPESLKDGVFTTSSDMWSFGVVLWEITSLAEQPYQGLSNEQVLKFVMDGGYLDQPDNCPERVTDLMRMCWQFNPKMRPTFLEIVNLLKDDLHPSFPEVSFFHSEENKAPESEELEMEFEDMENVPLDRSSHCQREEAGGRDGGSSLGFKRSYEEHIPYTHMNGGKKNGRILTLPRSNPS

Values after ≈ are worked out from the molar mass of the structure shown.

Usually clearance stands for a measure of how efficiently the substance is removed, as volume per time. High values mean a high capacity for elimination, low ones a low capacity for elimination. A word on the inhibition: it is the relative decrease from the control value, in per cent. As a reminder, the half-life is the time in which the quantity being followed falls by half. Read a low half-life as fast loss. The IC50 is the concentration that gives 50% inhibition.

Regarding `CC(=O)N[C@@H]1CCC[C@H](C(=O)Nc2cc(-c3cnn4c3CCCC4)c(Cl)cn2)C1`, the Vd amounted to 0.9 L/kg in [1] and 0.65 L/kg in data set [2] (dose 4.8 µmol/kg). The same molecule registered a solubility thermodynamic in [3] of 94 µg/mL (≈ 226 µM). The clearance in data set [4] stood at 65 mL/min/kg; in data set [6], 30 mL/min/kg. Moreover, the inhibition in data set [5] was found to be 96%. Besides, the Drug metabolism result in [7] is on record as “Metabolite_Detected”.
On to `CC(=O)N[C@@H]1CCC[C@H](C(=O)Nc2cc(-c3cnn4c3CC(C)(C)C4)c(F)cn2)C1`, for which, in data set [8], the Drug metabolism entry is recorded as “Metabolite_Detected”. The Vd in data set [2] (dose 2.4 µmol/kg) was 0.49 L/kg. Besides, the clearance at 0.25 h in [9] was found to be 53 mL/min/kg. Moreover, the solubility thermodynamic in [10] stood at 30 µg/mL (≈ 72.6 µM). Besides, the inhibition in data set [5] is 100%. For the same molecule, the Ratio IC50 in the data set listed under Homo sapiens [11], in the data set filed under Homo sapiens [12] and in the data set listed under Homo sapiens [13] was 16 throughout. Besides, the half-life at 0.25 h in data set [14] is 25.8 min.
For `CC(=O)N[C@@H]1CCC[C@H](C(=O)Nc2cc(-c3cnn4c3CC(C)(C)C4)c(Cl)cn2)C1` [ZEMIRCICLIB], the Drug metabolism entry in data set [15], in data set [17] and in [19] was “Metabolite_Detected” throughout. Besides, the solubility thermodynamic in data set [10] stood at 17 µg/mL (≈ 39.5 µM). The IC50 in [16] is 2.8 µM. The figures for the inhibition in [18], in data set [21] and in data set [24] were 85%, 90% and 83%, respectively. For the same molecule, the half-life in data set [20] was 10.8 min. The same molecule had a clearance in data set [22] of 16 mL/min/kg. Also, in the data set with NOMO-1, the Activity was 65%. For the same molecule, in data set [23], the Vd worked out at 0.67 L/kg.
